Assay results: US8809280B2, “Therapeutic peptides” (Lytix Biopharma AS, priority 2009, dated 2014)
In brackets after ≈: the same amount, converted by molar mass.

Key:
[1] = test system: Escherichia coli (ATTC 25922); test: microbe, parasite or virus in culture; format: cell-based; conditions: ATTC 25922; for MIC: read-out: MIC E. coli
Procedure, shortened: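 Broth dilution in 2% Bacto Peptone water, inoculum 2×10^6 cfu/ml of exponential-phase bacteria; compounds (di-TFA salts) tested in duplicate at 200 down to 0.5 μg/ml. Growth judged by well turbidity, with no-peptide negative and gentamicin positive controls.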

[2] = test system: methicillin resistant Staphylococcus aureus (ATCC 33591); test: microbe, parasite or virus in culture; format: cell-based; conditions: ATCC 33591
Procedure, shortened: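 Di-TFA salts tested in duplicate at 200 down to 0.5 μg/ml against exponentially grown bacteria at 2×10^6 cfu/ml. Growth judged by well turbidity, with no-peptide and gentamicin controls.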

[3] = Phospholipid vesicle based barrier model permeability; format: in vitro ADME; conditions: not told
Source text: Encouraged by the theoretical calculations, the permeability of the β^2,2-amino acid derivatives was further investigated using a recently established phospholipid vesicle based barrier model (Flaten et al. Eur. J. Pharm. Sci. [2006] 27, 80-90).

[4] = test system: Staphylococcus aureus (ATTC 25923); test: microbe, parasite or virus in culture; format: cell-based; conditions: ATTC 25923; for MIC: read-out: MIC S. aureus
Procedure, shortened: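 Di-TFA salts tested in duplicate at 0.5–200 μg/ml against exponential-phase bacteria at 2×10^6 cfu/ml grown in 2% peptone water. Growth judged by well turbidity, with no-peptide and gentamicin controls.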

[5] = test system: methicillin resistant Staphylococcus epidermidis (ATCC 27626); test: microbe, parasite or virus in culture; format: cell-based; conditions: ATCC 27626; for MIC: read-out: MIC MRSE
Procedure, shortened: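 Exponentially grown bacteria (2% peptone water) at 2×10^6 cfu/ml exposed in duplicate to di-TFA salts at 0.5–200 μg/ml. Growth or no growth judged by well turbidity; no-peptide and gentamicin controls included.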

α-chymotrypsin = α-chymotrypsin (Bos taurus, UniProt P00766, DEL14-15/DEL147-148); test: Stability against α-chymotrypsin; format: in vitro ADME; conditions: over a period of 48 hours
Description: The stability testing against α-chymotrypsin was conducted by dissolving the desired compounds to 1 mg/ml in water. α-Chymotrypsin was dissolved to 0.1 mg/ml in 1 mM HCl containing 2 mM CaCl2. The enzymatic digestion was performed in 100 mM TRIS HCl containing 10 mM CaCl2. Final enzyme concentration was 2 μg/ml, and final peptide concentration was 100 μg/ml. Total volume was 0.5 ml.
15 μl samples were collected at 0, 15, 30, 60, 120 and 240 min in addition to the 24 and 48 hours samples. To the samples it was added an external standard (atenolol hydrochloride) and 100 μl 10% acetic acid to terminate digestion before it was diluted to 1 ml with water.
For every test there were done a negative control without enzyme to ensure that degradation was due to enzyme activity and not other factors. Succinyl-ala-ala-pro-phe-para nitroanhiine was used as positive control. All test were run in triplicates.

human red blood cells = test: cells; format: cell-based; conditions: for EC50: red cells of human
Procedure, shortened: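 Washed heparinized RBCs, diluted to 10% hematocrit then to 1% v/v final, incubated with compounds in PBS (1–1000 μg/mL) for 1 h at 37 °C with agitation. Hemoglobin release read at 405 nm against PBS (0%) and 0.1% Triton X-100 (100%); value reported is concentration giving 50% hemolysis.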

SMILES	MBC E. coli [1]	Therapeutic index E. coli [1]	MBC MRSA [2]	MIC MRSA [2]	Therapeutic index MRSA [2]	MIC ([2]; read-out: MIC MTRSA)	permeability, model's classification of absorption [3]	MBC S. aureus [4]	Therapeutic index S. aureus [4]	MBC MRSE [5]	Therapeutic index MRSE [5]	proteolytic stability against α-chymotrypsin (α-chymotrypsin)	EC50 RBC (human red blood cells; Example 1, 50% hemolysis of human red blood cells, highest concentration tested 1000 μg/ml)	EC50 (human red blood cells)	MIC [1]	MIC [4]	MIC [5]
CN(C)CCN1CCN(C(=O)C(CN)(Cc2ccc3ccccc3c2)Cc2ccc3ccccc3c2)CC1 [Compound 4c]	289 µM (≈ 147 µg/mL)	8.5	7.2 µM (≈ 3.66 µg/mL)	7.2 µM (≈ 3.66 µg/mL)	120	3.4 µM (≈ 1.73 µg/mL)	moderately absorbed in humans	7.2 µM (≈ 3.66 µg/mL)	20	7.2 µM (≈ 3.66 µg/mL)	29	no degradation could be detected	— (The notation “—”denotes no detectable activity (MIC or EC50) within the concentration range tested.)	409 µM	–	–	–
N=C(N)NCCC[C@H](NC(=O)C(CN)(Cc1ccc2ccccc2c1)Cc1ccc2ccccc2c1)C(N)=O [Compound 4g]	266 µM (≈ 140 µg/mL)	–	5.3 µM (≈ 2.78 µg/mL)	5.0 µM (≈ 2.62 µg/mL)	–	–	–	6.6 µM (≈ 3.46 µg/mL)	–	6.6 µM (≈ 3.46 µg/mL)	–	no degradation could be detected	–	470 µM	266 µM (≈ 140 µg/mL)	6.6 µM (≈ 3.46 µg/mL)	6.6 µM (≈ 3.46 µg/mL)
Cc1ccc(CC(CN)(Cc2ccc(C)cc2)C(=O)N[C@@H](CCCNC(=N)N)C(N)=O)cc1 [Compound 4h]	>294 µM	–	110 µM (≈ 49.8 µg/mL)	74 µM (≈ 33.5 µg/mL)	–	–	–	147 µM (≈ 66.5 µg/mL)	–	110 µM (≈ 49.8 µg/mL)	–	no degradation could be detected	–	–	–	147 µM (≈ 66.5 µg/mL)	74 µM (≈ 33.5 µg/mL)
N=C(N)NCCC[C@H](NC(=O)C(CN)(Cc1ccc(C(F)(F)F)cc1)Cc1ccc(C(F)(F)F)cc1)C(N)=O [Compound 4i]	>254 µM	–	6.3 µM (≈ 3.53 µg/mL)	3.2 µM (≈ 1.79 µg/mL)	–	–	–	12.7 µM (≈ 7.12 µg/mL)	–	12.7 µM (≈ 7.12 µg/mL)	–	no degradation could be detected	–	–	254 µM (≈ 142 µg/mL)	12.7 µM (≈ 7.12 µg/mL)	12.7 µM (≈ 7.12 µg/mL)
CC(C)(C)c1ccc(CC(CN)(Cc2ccc(C(C)(C)C)cc2)C(=O)N[C@@H](CCCNC(=N)N)C(N)=O)cc1 [Compound 4k]	46 µM (≈ 24.7 µg/mL)	–	6.5 µM (≈ 3.49 µg/mL)	3.3 µM (≈ 1.77 µg/mL)	–	–	–	6.5 µM (≈ 3.49 µg/mL)	–	5.2 µM (≈ 2.79 µg/mL)	–	no degradation could be detected	–	–	46 µM (≈ 24.7 µg/mL)	6.5 µM (≈ 3.49 µg/mL)	5.0 µM (≈ 2.68 µg/mL)
COc1cc(CC(CN)(Cc2cc(OC)cc(OC)c2)C(=O)N[C@@H](CCCNC(=N)N)C(N)=O)cc(OC)c1 [Compound 4m]	>259 µM	–	259 µM (≈ 141 µg/mL)	259 µM (≈ 141 µg/mL)	–	–	–	>259 µM	–	129 µM (≈ 70.3 µg/mL)	–	no degradation could be detected	–	–	–	259 µM (≈ 141 µg/mL)	129 µM (≈ 70.3 µg/mL)
